Test results: article PMC11137182, “Selective and brain-penetrant ACSS2 inhibitors target breast cancer brain metastatic cells” (Frontiers in Pharmacology, 2024)

Test system: 4T1BR cells
Assay: Intracranial 4T1BR tumor model in vivo
Design: species or system BalbC mice
Procedure: Intracranial injections were performed as previously described ([Ciraku et al., 2021]). Briefly, Nu/Nu or BalbC female 4–6 week old mice from Charles River Laboratories (Wilmington, MA, United States) were immobilized using the Just for Mice ™ Stereotaxic Frame (Harvard Apparatus, Holliston, MA, United States) and injected intracranially with 5 μL of a 20,000 cells/μL solution of MDA-MB-231BR or 4T1BR cells stably expressing luciferase. Mice were injected intraperitoneally with 30 mg/kg of Dluciferin solution (Caliper Life Sciences, Hopkinton, MA) and results analyzed using Living Image software (Caliper Life Sciences, Waltham, MA, United States). For in vivo analog trials, mice were weighed daily and injected intraperitoneally with 50 mg/kg of AD-8007. Mice were euthanized 3 weeks after injection following survivial or at the end of drug treatment at indiciated day. The animal study was reviewed and approved by the Institutional Animal Care and Use Committee.
Brains were dissected, fixed in 4% formalin and prepared for processing/sectioning/embedding/blocking to generate paraffin embedded slides. The slides containing brain metastatic tumors were deparaffinized by Xylene and subsequent rehydration was done by decreasing concentrations of ethanol-water mixture. Antigen retrieval was done by citrate buffer immersion and steaming the slides for 45 min. Tissue was treated with 200–400 ul 1% BSA+5% serum PBS solution for 1h. Primary incubation was done at 4 °C overnight using primary antibody anti-FasN (Cell Signaling Technologies, C20G5). Secondary antibody incubation was done for an hour at RT with HRP conjugated Anti-Rabbit Secondary antibody (Cell Signaling Technologies). at 1:100 dilution. For IHC the stain was developed using the DAB kit by Vectastain (Vector Labs, Burlingame, CA, United States). Finally, slides were mounted and imaged under a light microscope. H&E and Ki-67 staining were performed and assessed at TJU, Department of Pathology, Philadelphia, PA by board-certified pathologist.

With N[C@H](C(=O)N1CCCC(c2ccccc2)(c2ccccc2)C1)C1CC1 [AD-8007] the Ki-67 staining (4T1BR intracranial, 10 days post treatment) was “reduced Ki-67 staining”, the survival (4T1BR intracranial, Kaplan Meyer) was “significantly extended survival” and the “tumor burden (bioluminescence)” value (4T1BR intracranial, immunecompetent mice, 10 days) was “reduced tumor burden”. The body weight (immunecompetent mice, 10 days) was “did not cause significant weight lost”.
